≈ marks a conversion by molar mass, not a printed value.
Tests used:
S. aureus strain 85/2082 = test: MIC, multi-resistant clinical isolate; assay type: cell-based, Staphylococcus aureus; details: for selectivity index (EC50/MIC): RBC EC50 / MIC, S. aureus strain 85/2082; for MIC: Staphylococcus aureus, 85/2082, read-out: Antimicrobial activity (MIC)
S. aureus N315 = test: MIC, multi-resistant clinical isolate; assay type: cell-based, Staphylococcus aureus; details: for selectivity index (EC50/MIC): RBC EC50 / MIC, S. aureus N315; for MIC: Staphylococcus aureus, N315, read-out: Antimicrobial activity (MIC)
S. aureus NCTC 10442 = test: MIC, multi-resistant clinical isolate; assay type: cell-based, Staphylococcus aureus; details: for selectivity index (EC50/MIC): RBC EC50 / MIC, S. aureus NCTC 10442; for MIC: Staphylococcus aureus, NCTC10442, read-out: Antimicrobial activity (MIC)
S. aureus strain WIS = test: MIC, multi-resistant clinical isolate; assay type: cell-based, Staphylococcus aureus; details: for selectivity index (EC50/MIC): RBC EC50 / MIC, S. aureus strain WIS; for MIC: Staphylococcus aureus, read-out: Antimicrobial activity (MIC)
human RBCs = test: Determination of haemolytic activity; assay type: cell-based
Outline: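 Heparinized fresh blood was washed in PBS, and RBCs were used at 1% v/v final with test compounds at 500–4 μM (DMSO ≤1%) for 1 h at 37 °C. Haemoglobin release was read at 545 nm and expressed relative to 1% Triton X-100 after PBS background correction. EC50 values are means of three independent experiments.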

| Structure (SMILES) | selectivity index (EC50/MIC) (S. aureus strain 85/2082) | MIC (S. aureus strain 85/2082) | selectivity index (EC50/MIC) (S. aureus N315) | MIC (S. aureus N315) | selectivity index (EC50/MIC) (S. aureus NCTC 10442) | MIC (S. aureus NCTC 10442) | selectivity index (EC50/MIC) (S. aureus strain WIS) | MIC (S. aureus strain WIS) | RBC toxicity compared to the amine 7(i) (human RBCs) |
| --- | --- | --- | --- | --- | --- | --- | --- | --- | --- |
| NCCCCN1C(=O)N(CCCCN)C(=O)C(Cc2cc(Br)cc(Br)c2)(Cc2cc(Br)cc(Br)c2)C1=O [7(ii)] | (21) | 4 µg/mL (≈ 5.22 µM) | (21) | 4 µg/mL (≈ 5.22 µM) | (21) | 4 µg/mL (≈ 5.22 µM) | (21) | 4 µg/mL (≈ 5.22 µM) |  |
| CC(C)(C)c1cc(CC2(Cc3cc(C(C)(C)C)cc(C(C)(C)C)c3)C(=O)N(CCCCN)C(=O)N(CCCCN)C2=O)cc(C(C)(C)C)c1 [7(iii), 1,3-bis(4-aminobutyl)-5,5-bis(3,5-di-tert-butylbenzyl)-pyrimidin-2,4,6(1H,3H,5H)-trione] | (<2) | 2 µg/mL (≈ 2.96 µM) | (<2) | 2 µg/mL (≈ 2.96 µM) | (<2) | 2 µg/mL (≈ 2.96 µM) | (<2) | 2 µg/mL (≈ 2.96 µM) |  |
| NCCCCN1C(=O)N(CCCCN)C(=O)C(Cc2ccc3ccccc3c2)(Cc2ccc3ccccc3c2)C1=O [7(iv), 1,3-bis(4-aminobutyl)-5,5-bis(naphtalen-2-yl-methyl)-pyrimidin-2,4,6(1H,3H,5H)-trione] | (30) | 8 µg/mL (≈ 14.5 µM) | (30) | 8 µg/mL (≈ 14.5 µM) | (30) | 8 µg/mL (≈ 14.5 µM) | (30) | 8 µg/mL (≈ 14.5 µM) |  |
| NCCCCN1C(=O)N(CCCCN)C(=O)C(Cc2ccc(F)c3ccccc23)(Cc2ccc(F)c3ccccc23)C1=O [7(v), 1,3-bis(4-aminobutyl)-5,5-bis((4-fluoronaphtalen-1-yl)methyl)pyrimidin-2,4,6(1H,3H,5H)-trione] | (40) | 4 µg/mL (≈ 6.82 µM) | (20) | 8 µg/mL (≈ 13.6 µM) | (20) | 8 µg/mL (≈ 13.6 µM) | (20) | 8 µg/mL (≈ 13.6 µM) |  |
| NCCCCN1C(=O)N(CCCCN)C(=O)C(Cc2cc(C(F)(F)F)cc(C(F)(F)F)c2)(Cc2cc(C(F)(F)F)cc(C(F)(F)F)c2)C1=O [7(vi)] | (11) | 16 µg/mL (≈ 22.1 µM) | (11) | 16 µg/mL (≈ 22.1 µM) | (11) | 16 µg/mL (≈ 22.1 µM) | (11) | 16 µg/mL (≈ 22.1 µM) |  |
| N=C(N)NCCCCN1C(=O)N(CCCCNC(=N)N)C(=O)C(Cc2cc(Br)cc(Br)c2)(Cc2cc(Br)cc(Br)c2)C1=O [8(ii), 1,1′-(4,4′-(5,5-bis(3,5-dibromobenzyl)-2,4,6-trioxodihydropyrimidine-1,3(2H,4H)-diyl)bis(butane-4,1-diyl))diguanidine] | (28) | 2 µg/mL (≈ 2.35 µM) | (28) | 2 µg/mL (≈ 2.35 µM) | (28) | 2 µg/mL (≈ 2.35 µM) | (28) | 2 µg/mL (≈ 2.35 µM) |  |
| CC(C)(C)c1cc(CC2(Cc3cc(C(C)(C)C)cc(C(C)(C)C)c3)C(=O)N(CCCCNC(=N)N)C(=O)N(CCCCNC(=N)N)C2=O)cc(C(C)(C)C)c1 [8(iii), 1,1′-(4,4′-(5,5-bis(3,5-di-tert-butylbenzyl)-2,4,6-trioxodihydropyrimidine-1,3(2H,4H)-diyl)bis(butane-4,1-diyl))-diguanidine] | (<2) | 2 µg/mL (≈ 2.63 µM) | (<1) | 4 µg/mL (≈ 5.27 µM) | (<2) | 2 µg/mL (≈ 2.63 µM) | (<2) | 2 µg/mL (≈ 2.63 µM) |  |
| N=C(N)NCCCCN1C(=O)N(CCCCNC(=N)N)C(=O)C(Cc2ccc3ccccc3c2)(Cc2ccc3ccccc3c2)C1=O [8(iv), 1,1′-(4,4′-(5,5-bis(naphthalen-2-ylmethyl)-2,4,6-trioxodihydropyrimidine-1,3(2H,4H)-diyl)bis(butane-4,1-diyl))-diguanidine] | (17) | 8 µg/mL (≈ 12.6 µM) | (17) | 8 µg/mL (≈ 12.6 µM) | (17) | 8 µg/mL (≈ 12.6 µM) | (17) | 8 µg/mL (≈ 12.6 µM) |  |
| N=C(N)NCCCCN1C(=O)N(CCCCNC(=N)N)C(=O)C(Cc2ccc(F)c3ccccc23)(Cc2ccc(F)c3ccccc23)C1=O [8(v), 1,1′-(4,4′-(5,5-bis((4-fluoronaphthalen-1-yl)methyl)-2,4,6-trioxodihydropyrimidine-1,3(2H,4H)-diyl)bis(butane-4,1-diyl))diguanidine] | (44) | 2 µg/mL (≈ 2.98 µM) | (44) | 2 µg/mL (≈ 2.98 µM) | (44) | 2 µg/mL (≈ 2.98 µM) | (44) | 2 µg/mL (≈ 2.98 µM) |  |
| CC(C)(C)c1ccc(CC2(Cc3ccc(C(C)(C)C)cc3)C(=O)N(CCCCN)C(=O)N(CCCCN)C2=O)cc1 [Compound 7(i), 1,3-bis(4-aminobutyl)-5,5-bis(4-tertbutylbenzyl) pyrimidin-2,4,6(1H,3H,5H)-trione] | (18) | 8 µg/mL (≈ 14.2 µM) | (18) | 8 µg/mL (≈ 14.2 µM) | (18) | 8 µg/mL (≈ 14.2 µM) | (18) | 8 µg/mL (≈ 14.2 µM) |  |
| CC(C)(C)c1ccc(CC2(Cc3ccc(C(C)(C)C)cc3)C(=O)N(CCCCNC(=N)N)C(=O)N(CCCCNC(=N)N)C2=O)cc1 [Compound 8(i), 1,1′-(4,4′-(5,5-bis(4-tert-butylbenzyl)-2,4,6-trioxodihydropyrimidine-1,3(2H,4H)-diyl)bis(butane-4,1-diyl))diguanidine] | (39) | 2 µg/mL (≈ 3.09 µM) | (39) | 2 µg/mL (≈ 3.09 µM) | (39) | 2 µg/mL (≈ 3.09 µM) | (39) | 2 µg/mL (≈ 3.09 µM) | twofold increased RBC toxicity |
